Entries after “also recorded” stand apart in the source; their conditions may differ. Where a SMILES comes first, the peptide text is derived from it. The star is where a group is joined. Palmitoyl = CCCCCCCCCCCCCCCC(=O)*
Legend:
[1] = system: 3D7 line of P. falciparum; test: Peptide inhibition of parasite growth (pLDH method); type: cell-based, Plasmodium falciparum; details: for Growth inhibition (dose-response curves) / Concentration-response relationship of growth inhibition: 48 and 72 hours; for Growth inhibition (dose-response curves) / Growth inhibition / Concentration-response relationship of growth inhibition: means of three experiments in duplicate; for Growth inhibition: 100 μM peptide, 48 hour and 72 hour time points, asynchronous cultures, 2% haematocrit, 0.8% initial parasitaemia, max 0.5% DMSO, pLDH activity; for Concentration-response relationship of growth inhibition: ten concentrations between 10 μM and 100 μM
Description: P. falciparum line 3D7, adapted to grow in Albumax® (BioSciences, Dun Laoghaire, Ireland), was cultured in human erythrocytes (Irish Blood Transfusion Board, Ireland) in standard growth medium, in candle jars. Fresh erythrocytes were obtained every three weeks and washed according to lab protocols. Staining of blood smears was with Giemsa stain. The number of infected erythrocytes was counted by microscopy and the parasitaemia was calculated.
The antimalarial activity of test peptides (ChinaPeptides Co. Ltd, Shanghai, China) was determined in culture on the 3D7 line of P. falciparum using the parasite lactate dehydrogenase (pLDH) method in 96-well microtitre plates with modifications as previously described. Each test peptide was initially evaluated at three different concentrations, 100 μM, 10 μM and 1 μM, to determine activity range. The effect of the compounds was evaluated at 48 and 72 hours on growth of asynchronous cultures (cultured as described in the previous section) of P. falciparum, determined by the assay of pLDH activity. We used unsynchronised cultures in order (i) to make no prior assumptions about the stage of growth that might be inhibited and (ii) to avoid possible inhibitory effects of the synchronising protocol, e.g. sorbitol treatment, separation techniques, etc. The appropriate dilutions of the compounds were prepared in DMSO and added to the cultures of P. falciparum (2% haematocrit, 0.8% initial parasitaemia and a maximum of 0.5% DMSO). The same methodology was then used to assess the dose-response curves of peptides 5, 7, 10, 11, 12, 13 using ten concentrations between 10 μM and 100 μM.

[2] = reason for exclusion from further investigation
[3] = system: P. falciparum late stages (trophozoite/schizont) introduced to fresh erythrocytes; test: Schizont to ring development assay; type: cell-based, Plasmodium falciparum; details: 100 μM peptide, 2 hours with magnetically purified schizonts, washed, fresh erythrocytes 14–16 hours; rings counted in Giemsa smears; two experiments in triplicate
Source text: Routine erythrocytic P. falciparum cultures are an asynchronous culture consisting of rings, trophozoites, schizonts and merozoites. To enrich for the late stages of erythrocytic development, parasites at high parasitaemia (>15%) were subjected to magnetic selection. Parasitised erythrocytes were passed over a CS column (Miltenyi Biotec, Surrey, UK) which was mounted on a VarioMacs magnet (Miltenyi Biotec, Surrey, UK). The column was then washed with incomplete medium (RPMI 1640 supplemented with 25 mM HEPES, hypoxanthine [50 μg/ml], 0.16% w/v glucose) to remove unparasitised erythrocytes and was then removed from the magnet, a further wash with incomplete medium eluting late-stage parasitised erythrocytes.
Parasites synchronised to late stages (trophozoite/schizont) by magnetic selection were incubated with either the peptide being tested (100 μM concentration) or vehicle only control (DMSO) in complete medium for two hours. Treated schizonts were washed with complete medium and centrifugation at 350 xg for 10 minutes. Washing was repeated twice. Treated schizonts were then introduced to fresh erythrocytes at 2.5% hematocrit and incubated overnight (14–16 hours) with shaking. Parasitaemia was assessed by counting the number of ring stages in parasitised erythrocytes in Giemsa stained blood smears by light microscopy. This crude assay measures not just invasion but merozoite release and early ring-stage development.

[4] = system: erythrocytes from healthy human volunteers; details: 100 μM peptide; approx. 1.5 × 10^8 erythrocytes, 15 minutes at 37°C, buffer A pH 7.4; absorbance 405 nm; compared with 0.1% (v/v) Triton X-100 = 100%; duplicate, three donors
Description: The hemolytic activity of the peptides was investigated using erythrocytes from healthy human volunteers. Blood was collected in the presence of 15% anticoagulant acid citrate glucose (ACD) (38 mM citric acid, 75 mM sodium citrate, 124 mM glucose) and was centrifuged at 150 xg for 10 minutes at room temperature. Plasma was removed and erythrocytes were washed twice with buffer A (pH 7.4) (130 mM sodium chloride, 10 mM sodium citrate, 9 mM sodium biocarbonate, 6 mM glucose, 0.9 mM magnesium chloride, 0.81 mM potassium hydrogen phosphate, 10 mM Tris), by cenrifugation at 1,000 xg for 5 minutes and resuspended in the same buffer. For the hemolysis assay approximately 1.5 × 10^8 erythrocytes were incubated with solutions of peptides 5, 10 or 12-Cam at 100 μM and 10 μM concentrations for 15 minutes at 37°C. After incubation, samples were centrifuged at 1,000 xg for 5 minutes and the supernatant was analysed for the presence of hemoglobin at an absorbance of 405 nm. Complete hemolysis was achieved using 0.1% (v/v) Triton X-100 yielding the 100% control value. The assay was run in duplicate with three different donors.

Molecule | Growth inhibition [1] | Concentration-response relationship of growth inhibition [1] | other results
pal-KHRKGNNA-NH2 [Peptide 13, palmitoylated, amidated peptide from complement receptor type 1] | some growth inhibition; also recorded: moderate activity |  | Growth inhibition (dose-response curves) ([1]; 10 μM): no inhibition
pal-KKKLYLYFE-NH2 [Peptide 3] | some growth inhibition |  | Solubility [2]: insolubility
pal-KRKLKEEQRTKKIKID [Peptide 4, palmitoylated peptide from putative calcium-transporting ATPase Q76NN8] |  |  | Antimalarial activity (overall, growth inhibition assay) ([1]; tested at 100 μM, 10 μM and 1 μM): inactive
pal-SYTIRRLIKA [Peptide 12, palmitoylated peptide from glycophorin-B, common human polymorphism of peptide 11] | clearly observed | clear increases in growth inhibition with increasing concentration | Ability of merozoites to establish new infections in fresh erythrocytes (ring parasitaemia, % of control) [3]: almost totally reduced
CCCCCCCCCCCCCCCC(=O)N[C@@H](CCCNC(=N)N)C(=O)N[C@@H](CCCNC(=N)N)C(=O)N[C@@H](CC(C)C)C(=O)N[C@H](C(=O)N[C@@H](CCCCN)C(=O)N[C@@H](CCCCN)C(=O)N[C@@H](CO)C(=O)N1CCC[C@H]1C(N)=O)[C@@H](C)CC [Peptide 10] (Palmitoyl-RRLIKKSP-NH2) | clearly observed | clear increases in growth inhibition with increasing concentration | Ability of merozoites to establish new infections in fresh erythrocytes (ring parasitaemia, % of control) [3]: not as significant as that of the other two peptides; Release of haemoglobin from erythrocytes [4]: approximately 50%
pal-AALQEPALQDAGESSRKEYFI [glycophorin-C peptide, palmitoylated peptide from glycophorin-C, preliminary testing only] |  |  | Activity in preliminary testing ([1]; preliminary testing, no further tests conducted): no activity
CCCCCCCCCCCCCCCC(=O)N[C@@H](CO)C(=O)N[C@@H](CO)C(=O)N[C@@H](CO)C(=O)N[C@@H](CCCNC(=N)N)C(=O)N[C@@H](CCCCN)C(=O)N[C@@H](CC(N)=O)C(=O)N[C@@H](CCCNC(=N)N)C(=O)N[C@@H](Cc1ccccc1)C(=O)N[C@@H](CCCNC(=N)N)C(=O)N[C@@H](Cc1ccc(O)cc1)C(=O)N[C@@H](CC(C)C)C(=O)N1CCC[C@H]1C(=O)N[C@@H](Cc1ccccc1)C(N)=O [Peptide 5] (Palmitoyl-SSSRKNRFRYLPF-NH2) | clearly observed | clear increases in growth inhibition with increasing concentration | Ability of merozoites to establish new infections in fresh erythrocytes (ring parasitaemia, % of control) [3]: almost totally reduced
pal-KEEIIEIVFDENEEKYF [Peptide 7] | some growth inhibition; also recorded: moderate activity |  | Growth inhibition (dose-response curves) ([1]; 10 μM): no inhibition
CCCCCCCCCCCCCCCC(=O)O [Palmitate, reference compound] | no inhibitory effect |  | 
CCCCCCCCCCCCCCCC(=O)N[C@@H](CO)C(=O)N[C@@H](Cc1ccc(O)cc1)C(=O)N[C@H](C(=O)N[C@H](C(=O)N[C@@H](CCCNC(=N)N)C(=O)N[C@@H](CCCNC(=N)N)C(=O)N[C@@H](CC(C)C)C(=O)N[C@H](C(=O)N[C@@H](CCCCN)C(=O)N[C@@H](C)C(N)=O)[C@@H](C)CC)[C@@H](C)CC)[C@@H](C)O [Peptide 12-Cam] (Palmitoyl-SYTIRRLIKA-NH2) |  |  | Growth inhibition of amidated peptide 12 versus its scrambled versions ([1]; 10 μM, 48 and 72 hours (Fig 4), three experiments in duplicate): more active than four scrambled controls
pal-SYSIRRLIKA [Peptide 11, palmitoylated peptide from glycophorin-B] | some growth inhibition | no such clear effect | 

Reference: article PMC4454681, “Design and Evaluation of Antimalarial Peptides Derived from Prediction of Short Linear Motifs in Proteins Related to Erythrocyte Invasion” (PLoS ONE, 2015)
